Patent US20240400692A1, “CELIAC DISEASE EPITOPES” (NEXTERA AS, priority 2021, published 2024)

Assays:
[1] = tested on: T cells in HLA-DQ2.5 typed PBMCs; test: Intracellular IFN-γ flow assay of peptide-stimulated PBMCs; assay type: cell-based, human; settings: HC donor 557; 20 μM peptide; 48h; FIG. 14B
[2] = tested on: T cells in HLA-DQ2.5 typed PBMCs; test: as above; assay type: cell-based, human; settings: for expansion of IFN-γ positive cells in the CD3+/CD4− cell population / expansion of IFN-γ positive CD4 T cells, CeD donor: 20 μM peptide; for expansion of IFN-γ positive cells in the CD3+/CD4− cell population / expansion of IFN-γ positive CD4 T cells, CeD donor / presence of response in tested CeD PBMC material / responses in healthy controls: 48h; for expansion of IFN-γ positive cells in the CD3+/CD4− cell population: FIG. 14C; for peptide reactivity, CeD donor 595: no statistical difference; for expansion of IFN-γ positive CD4 T cells, CeD donor: CeD donor 595, average, FIG. 14B; for presence of response in tested CeD PBMC material: CeD donors 585, 595 and 600; for presence of response in tested CeD PBMC material / responses in healthy controls: 20 μM; for responses in healthy controls: two HCs (557 and 558), FIG. 15B
Source text: Intracellular IFNγ flow assessment of CD4 T cell peptide stimulatory capacity using PBMCs. Cryopreserved HLA-DQ2.5 typed PBMCs from confirmed healthy controls (HC) and CeD patients were purchased (HemaCare-Cellero) and used in autologous in vitro T cell peptide stimulation assays followed by intracellular IFNγ staining in flow. (A) PBMCs from CeD donor 595 were used to set intracellular IFNγ baseline detection gates on CD3/CD4 T cells using anti-IFNγ-PE. (B and C) Bar graph representing intracellular IFNγ detection in CD4+/IFNγ+(B) and CD4−/IFNγ+(C) gates as illustrated in A. PBMCs from CeD donor 595 and HC 575 were stimulated with 20 μM DQ2.5-glia 33-mer (N-[…]-C(SEQ ID NO:59)) and A0A0E3SZN6_p6E_long (N-[…]-C(SEQ ID NO:30)), for 48h followed by intracellular T cell IFNγ detection.
Intracellular IFN-γ flow assessment of CD4 T cell peptide stimulatory capacity using PBMCs. Cryopreserved HLA-DQ2.5 typed PBMCs from confirmed healthy controls (HC) and CeD patients were purchased (HemaCare-Cellero) and used in autologous in vitro T cell peptide stimulation assays followed by intracellular IFN-γ staining in flow. Intracellular IFN-γ baseline detection gates on CD3/CD4 T cells using anti-IFN-γ-PE were set as in FIG. 14.
PBMCs from CeD donors (585, 595 and 600) and HCs (557 and 558) were stimulated with 20 μM DQ2.5-glia 33-mer (N-[…]-C(SEQ ID NO:59)) and A0A0E3SZN6_p6E_long (N-[…]-C(SEQ ID NO:30)), for 48h followed by intracellular T cell IFN-γ detection (A and B). Values are presented as mean values and ±SEM.
Peptide-stimulated PBMCs were assessed for intracellular IFN-γ following reagents and the standard protocol from BioLegend (https://www.biolegend.com/). Briefly, cryopreserved human HLA-DQ2.5^+ PBMCs (HemaCare-Cellero) where gently thawed and washed in ice-cold PBS before resuspended into RPMI1640 supplemented with 10% FCS (v/v) before volumes of 1 ml (about 2×10^7 cells) were aliquoted into a 24-well microtiter plate (NUNC). One set of wells received either 20 μM of peptide (either A0A0E3SZN6_p6E_long ([…] (SEQ ID NO:30)) or 33-mer ([…] ([…]))). […] The cells were grown at standard conditions at 37° C. for 36h before Brefaldin A (BioLegend) and Monensin (BioLegend) was added, and incubation continued for another 12 h. The cells were then assessed for intracellular IFN-γ by flow. Data was acquired on a BD Accuri C6 cytometer (BD Biosciences) and analyzed using FlowJo software V10 (Tree Star).

chymotrypsin = target: T1, chymotrypsin (Bos taurus, UniProt P00766); test: In vitro chymotrypsin digest and mass spectrometry of recombinant gliadin; settings: chymotrypsin 200:1 (w:w), 37° C., 24h; MS; FIG. 9E
T1 construct: purchased Sigma; host or cells: substrate gliadin: E. coli BL21 (DE3)pLysS, made by Genscript
Source text: Assessment of in vitro chymotrypsin proteolysis of the A0A0E3SZN6_TRIUA protein. The T. aestivum Q9M4L6_WHEAT (A), T. urartu A0A0E3SZN6_TRIUA (B) and T. aestivum Q9FUW7_WHEAT (C) proteins where produced and affinity purified from E. coli, followed by in vitro chymotrypsin digest and mass spectrometry analysis of the resulting peptide segments (D, E and F). The anticipated 9-mer core regions of the relevant epitopes are indicated by enumeration (D, E and F). Panel A: SDS-PAGE and Western blot analysis of Q9M4L6_WHEAT. Lane M1: Protein Marker, GenScript, Cat. No. M00516, Lane M2: Protein Marker, GenScript, Cat. No. M00521, Lane 1: BSA ([…]), Lane 2: Q9M4L6_WHEAT (Reducing condition, […]), Lane 3: Q9M4L6_WHEAT (Non-reducing condition, 2.00 μg), Lane 4: Q9M4L6_WHEAT (Reducing condition), Lane 5: Q9M4L6_WHEAT (Non-reducing condition), Primary antibody: Mouse-anti-His mAb (GenScript, Cat. No. A00186). Panel B: SDS-PAGE and Western blot analysis of A0A0E3SZN6_TRIUA. […]
Recombinant gliadins were in vitro chymotrypsin digested essentially as described (Molberg O, et al., Methods Mol Med. 2000; 41:105-24). […] MS spectra were analyzed by using the PEAKS studio software (Bioinformatics Solutions Inc.) searched against a custom databased made by the respective gliadin Uniprot accession codes.

107 antibody = test: FACS of antibody binding to peptides pulsed onto DQ2.5+ Raji cells, 107 antibody; assay type: cell-based; settings: 50 μM peptide pulsed onto human DQ2.5+ Raji cells
Procedure: (§1) Assessment of antibody binding to the A0A0E3SZN6_TRIUA epitope candidate. […] The indicated peptides (50 μM) were pulsed onto human DQ2.5*Raji cells and antibody binding was tested in FACS as described (B).
(§2) Assessment of antibody binding to the physiological relevant forms of the A0A0E3SZN6_TRIUA epitope candidate. The T. urartuA0A0E3SZN6_TRIUA (A) and T. aestivum Q9M4L6_WHEAT (B) sequences were in silico digested with tryspin and chymotrypsin, and the relevant digested fragments shown underlined (A and B). […] The known P positions are indicated (C). The indicated peptides were pulsed (50 μM) onto human DQ2.5*Raji cells and antibody binding was tested in FACS as described (D).
(§3) To identify putative gliadin-derived sequences different from, but with similarity to, the 30 DOQ.2.5-glia-α1a epitope (PFPQP{right arrow over (E)}LPY (SEQ ID NO:4)), the UniProtKB protein database was searched using the ScanProsite tool (https://prosite.expasyorg/scanprosite/). […] More specifically, we fixed the proline (P) in p1, the glutamine (Q) in p6, the tyrosine (Y) in p9, and P was disallowed in the position p10 after the p9 Y (underlined). To focus the output of the searches, we restricted the output to the Triticum taxonomic group. […] In some cases, Q residues were exchanged with glutamate (E) in the peptide synthesis in order to mimic positional deamidation.

4.7C antibody = test: FACS of antibody binding to peptides pulsed onto DQ2.5+ Raji cells, 4.7C antibody; assay type: cell-based; settings: 50 μM peptide pulsed onto human DQ2.5+ Raji cells
Procedure: as §1, §2, §3

[3] = A0A0E3SZN6 peptide versus 33-mer, FIG. 15A

Sequence of 107 antibody (as listed by the source, other chains not shown): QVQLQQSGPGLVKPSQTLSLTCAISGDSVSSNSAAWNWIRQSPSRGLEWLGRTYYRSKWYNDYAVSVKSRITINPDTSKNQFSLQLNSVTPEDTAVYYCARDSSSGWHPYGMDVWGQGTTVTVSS
Sequence of 107 antibody (as listed by the source, other chains not shown): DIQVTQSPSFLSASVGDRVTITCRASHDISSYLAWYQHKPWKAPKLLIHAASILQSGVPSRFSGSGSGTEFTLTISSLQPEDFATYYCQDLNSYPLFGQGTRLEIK
Sequence of 4.7C antibody (as listed by the source, other chains not shown): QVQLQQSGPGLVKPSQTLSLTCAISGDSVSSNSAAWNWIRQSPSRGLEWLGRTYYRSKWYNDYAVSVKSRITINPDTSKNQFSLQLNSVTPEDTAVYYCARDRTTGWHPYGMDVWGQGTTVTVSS

Q: What does the source list for “LQLQPFPQPELPYPQPELPYPQPELPYPQPQPF (SEQ ID NO:55) [33-mer, reference compound]”?
A: expansion of IFN-γ positive CD4 T cells, healthy control [1]: no such expansion; expansion of IFN-γ positive cells in the CD3+/CD4− cell population [2]: not seen; peptide reactivity, CeD donor 585 [2, 3]: appeared to favor; peptide reactivity, CeD donor 595 [2, 3]: about equal on both; expansion of IFN-γ positive CD4 T cells, CeD donor [2]: 4.2%; presence of response in tested CeD PBMC material ([2]; FIG. 15A): 2/3; responses in healthy controls [2]: no responses

Q: For “A0A0E3SZN6_TRIUA: omega-gliadin protein of Triticum urartu (SEQ ID NO:1), produced recombinantly in E. coli (QPQQPYP)”, which “processing of the 9-mer core by chymotrypsin proteolysis” value (chymotrypsin) is on record?
A: Its value is “no destructive processing was observed of the postulated novel 9-mer core peptide”.

Q: Which “binding of 107 antibody to peptide-pulsed Raji cells (FACS)” value (shortened to “binding of 107 antibody”) (107 antibody) does the source give for PQQPYPQQEQPYGT (SEQ ID NO:29) here?
A: The value was “bind well”.

Q: And the “binding of 4.7C antibody to peptide-pulsed Raji cells (FACS)” value (shortened to “binding of 4.7C antibody”) (4.7C antibody)?
A: Its value is “bind well”.

Q: How did the “expansion of IFN-γ positive CD4 T cells, healthy control” value [1] turn out when “QPQQPYPQQEQPYGTSL (SEQ ID NO:30) [A0A0E3SZN6 peptide]” was run?
A: The value was “no such expansion”.

Q: And the “expansion of IFN-γ positive cells in the CD3+/CD4− cell population” value [2]?
A: Its value is “not seen”.

Q: What about the “peptide reactivity, CeD donor 600” value [2, 3] of the same substance?
A: Its value is “appeared to favor”.

Q: What about the “peptide reactivity, CeD donor 595” value [2, 3] of the same substance?
A: The value was “about equal on both”.

Q: And the “expansion of IFN-γ positive CD4 T cells, CeD donor” value [2]?
A: The value was 2.8%.

Q: And the “presence of response in tested CeD PBMC material” value ([2]; FIG. 15A)?
A: Its value is 2/3.

Q: What about the “responses in healthy controls” value [2] of the same substance?
A: Its value is “no responses”.

Q: For “PQQPYPEQQQPYGT (SEQ ID NO:62) [form of the peptide with E at position 4 of the 9-mer]”, which “binding of 107 antibody” value (107 antibody) is on record?
A: The value was “not”.

Q: How did the “binding of 107 antibody” value (107 antibody) turn out when “PQPELPYPQPE (SEQ ID NO:57) [DQ2.5-glia-α2, reference compound]” was run?
A: The value was “No binding”.

Q: What about the “binding of 4.7C antibody” value (4.7C antibody) of the same substance?
A: Its value is “No binding”.

Q: Which “binding of 107 antibody” value (107 antibody) does the source give for PQQPYPQQQQPYGT (SEQ ID NO:24) here?
A: Its value is “not”.

Q: Which “binding of 107 antibody” value (107 antibody) does the source give for PQQPYPEQEQPYGT (SEQ ID NO:63) [EE] here?
A: The value was “bind well”.

Q: What about the “binding of 4.7C antibody” value (4.7C antibody) of the same substance?
A: Its value is “bind well”.

Q: Which results are given for “PYPQQEQPY (SEQ ID NO:25) [p6 deamidated 9-mer]”?
A: binding of 107 antibody to peptide-pulsed Raji cells (FACS) (107 antibody): no binding; binding of 4.7C antibody to peptide-pulsed Raji cells (FACS) (4.7C antibody): no binding
